Results from patent US20140228311A1, “CRYSTALLIZATION OF IDARUBICIN HYDROCHLORIDE” (HERAEUS PRECIOUS METALS GMBH & CO. KG, priority 2011, published 2014).
Structures can show the parent of a compound that is named as a salt.

How the values were obtained:
Assay type in all cases: physicochemical
[1] = Storage of currently available idarubicin hydrochloride under typical storage conditions; conditions: hydrolysis of the sugar group, increase in 4-demethoxydaunomycinone
[2] = Storage stability of crystalline idarubicin hydrochloride in drying chamber, content analysed by HPLC; conditions: for Purity of idarubicin hydrochloride: HPLC
Protocol: The crystalline idarubicin hydrochloride obtained in Example 1 was studied for its stability relative to storage at temperatures of 25° C. and 40° C. for various time periods. For this purpose, aliquots of the obtained crystalline idarubicin hydrochlorides were encapsulated individually. One half of the aliquots were stored in a drying chamber at 25° C., the other half were stored in a different drying chamber at 40° C. After the times specified below, individual samples were taken from the drying chambers and the content of idarubicin hydrochloride was analyzed by high performance liquid chromatography (HPLC).

[3] = Thermodynamic stability of the crystalline form versus amorphous form; conditions: compared with amorphous idarubicin hydrochloride

Row | Structure (SMILES) | Decomposition during storage [1] | Stability for long storage ([2]; long storage under elevated temperatures) | Purity of idarubicin hydrochloride ([2]; storage at 25° C., 0 weeks) | Purity of idarubicin hydrochloride ([2]; storage at 25° C., 1 week) | Purity of idarubicin hydrochloride ([2]; storage at 25° C., 2 weeks) | Purity of idarubicin hydrochloride ([2]; storage at 25° C., 4 weeks) | Purity of idarubicin hydrochloride ([2]; storage at 25° C., 8 weeks) | Purity of idarubicin hydrochloride ([2]; storage at 25° C., 24 weeks) | Purity of idarubicin hydrochloride ([2]; storage at 40° C., 0 weeks) | Purity of idarubicin hydrochloride ([2]; storage at 40° C., 1 week) | Purity of idarubicin hydrochloride ([2]; storage at 40° C., 2 weeks) | Purity of idarubicin hydrochloride ([2]; storage at 40° C., 4 weeks) | Purity of idarubicin hydrochloride ([2]; storage at 40° C., 8 weeks) | Purity of idarubicin hydrochloride ([2]; storage at 40° C., 24 weeks) | Thermodynamic stability [3]
1 | CC(=O)[C@]1(O)Cc2c(O)c3c(c(O)c2[C@@H](O[C@H]2C[C@H](N)[C@H](O)[C@H](C)O2)C1)C(=O)c1ccccc1C3=O [idarubicin hydrochloride] | steady decomposition |  |  |  |  |  |  |  |  |  |  |  |  |  | 
2 | CC(=O)[C@]1(O)Cc2c(O)c3c(c(O)c2[C@@H](O[C@H]2C[C@H](N)[C@H](O)[C@H](C)O2)C1)C(=O)c1ccccc1C3=O [crystalline idarubicin hydrochloride, idarubicin hydrochloride] |  | extraordinarily high stability | 99.95 | 99.90 | 99.87 | 99.93 | 99.84 | 99.91 | 99.95 | 99.87 | 99.87 | 99.92 | 99.83 | 99.91 | thermodynamically more stable than amorphous idarubicin hydrochloride
